Consider three molecules from patent US20220409617A1, “Drug Formulations and Methods of Treatment for Metabolic Disorders” (The Regents of the University of California, priority 2019, published 2022).

For one assay, the system named is DRP1. Description: DRP1 recruitment to mitochondria (DRP1/citrate synthase co-localization) and DRP1 western blot. The class given is cell-based, mouse. Conditions: MEFs; 893 5 μM or YM201636 800 nM 3 h, then palmitate 250 μM 3 h. The protocol:
Mature adipocytes were serum starved for 16 h then treated with vehicle, ceramide (50 or 100 μM), or sphingolipid-like compound 893 (5 or 10 μM) in serum-free media supplemented with 0.2% fatty-acid free BSA for 3 h after which 100 nM insulin was added for 15 min. To determine total DRP1 protein levels, 100,000 MEFs were seeded into a 6-well plate for 16 h, pre-treated for 3 h with vehicle or sphingolipid-like compound 893 (5 μM) followed by a 3 h incubation in 1% BSA+ethanol or BSA-palmitate (250 μM). Cells were washed once with cold PBS, then lysed in cold RIPA buffer (140 mM NaCl, 10 mM Tris pH 8.0, 1% Triton X-100, 0.1% SDS, 1% sodium deoxycholate) with cOmplete™ protease inhibitor (Cat no. 11697498001, Millipore Sigma, St. Louis, Mo.) and phosSTOP™ phosphatase inhibitor (Cat no. 4906837001, Millipore Sigma). Samples were incubated on ice for 10 min and insoluble material removed by centrifugation (9000×g for 10 min at 4° C.). Protein content was quantified in the supernatant using the Pierce™ BCA Protein Assay Kit (Thermo-Fisher Scientific, Waltham, Mass.). Equal amounts of protein were prepared in NuPAGE® LDS Sample Buffer (NP0007, Invitrogen) containing 50 mM DTT, and heated at 70° C. for 10 min. Proteins were resolved on a NuPAGE® 4-12% Bis-Tris protein gel (NP0336, Invitrogen, Carlsbad, Calif.) and subsequently transferred to a nitrocellulose membrane. Membranes were blocked in 5% BSA in TBST for 1 h, then probed with primary antibodies overnight at 4° C. […] Band intensity was quantified using Image Studio Lite V5.2 software (Li-COR).
(§1) MEFs were washed twice with PBS and fixed with 4% paraformaldehyde for 10 min at RT. […] NADH/NADPH autofluorescence was detected with 740 nm excitation and 450±50 nm detectors using a Mai Tai two-photon laser. Fluorescence microscopy was performed on a Zeiss LSM 780 confocal using a 63× oil objective with a […] numerical aperture (NA) or using a Nikon TE2000-S inverted epifluorescence microscope with a 100× oil objective (1.3 NA) and a Photometrics CoolSNAP ES2 monochrome CCD camera. […]
For orientation: A western blot detects proteins with antibodies after separation by electrophoresis.

The subject of the next assay is A549 lung cancer cells. Description: KRAS-mediated mitochondrial fission in A549 cells. Format: cell-based, human. The settings on record: A549, oncogenic KRAS; 893 5 μM 1 h, leflunomide 50 μM 24 h. The protocol:
3T3-L1 cells were maintained in DMEM with 10% FBS and 1% penicillin-streptomycin until induced to differentiate. 3T3-L1 pre-adipocytes were differentiated as described in (M. P. Valley, et al., Anal. Biochem. 505: 43-50, 2016, the disclosure of which is incorporated herein by reference) with slight modifications. Briefly, pre-adipocytes were grown to confluence. After 2 d, cells were induced with maintenance media containing 500 μM IBMX (15879, Sigma-Aldrich, St. Louis, Mo.), 1 μM dexamethasone (D4902, Sigma-Aldrich), 5 μg/mL bovine insulin (10516, Sigma-Aldrich), and 5 μM troglitazone (50-115-0786, ApexBio). Media was changed every 2-3 d for 7 d. On day 7 post-induction, media was changed to maintenance media+5 μg/mL bovine insulin. On day 9 post-induction, media was changed to maintenance media. Mature adipocytes were used 12-14 d post-induction for all experiments. LSL-KrasG12D mouse embryonic fibroblasts (MEFs) with and without Cre-mediated deletion of the STOP cassette were obtained from David Tuveson (Cold Spring Harbor Laboratory, Cold Spring Harbor N.Y., USA) in 2000. p53^flox/flox MEFs were derived in house (2015) from C57BL/6 mice using standard techniques and immortalized by transient expression of Cre recombinase and deletion of p53. MEFs were cultured and maintained in DMEM with 10% FBS and 1% penicillin-streptomycin. A549 cells were cultured in DMEM with 10% FBS, 1% penicillin-streptomycin and 1% sodium pyruvate. Stock solution of palmitic acid (ACROS Organics, cat # AC129702500) was prepared at 100 mM in ethanol. Palmitate (250 μM) was conjugated to 1% (w/v) fatty-acid free bovine serum albumin (Sigma, A8806) in DMEM at 37° C. for 20 min. For all immunofluorescence assays, 8,000 MEFs were seeded into 8-chamber slides (Cellvis, cat # C8-1.5H-N) 12-16 h before treatment. Cells were pre-treated with sphingolipid-like compound 893 (5 μM in water), myriocin (10 μM in methanol), fumonisin-B1 (30 μM in DMSO), or celastrol (500 nM in DMSO) for 3 h followed by a 3 h treatment with BSA-conjugated palmitate mixture or BSA alone. […]
as §1

Assay [1] concerns mouse embryonic fibroblasts (MEFs). Format: cell-based. The settings on record: 3 h pre-treatment then palmitate 250 μM 3 h, 893 5 μM, myriocin 10 μM, fumonisin B1 30 μM, NAV-2729 12.5 μM, YM201636 800 nM, celastrol 500 nM.
Procedure: Mitochondrial morphology was assessed by examining citrate synthesis expression under a high resolution microscopy. Specifically, the aspect ratio, branch length and roundness of mitochondria was assessed (FIG. 1).
LSL-KrasG12D mouse embryonic fibroblasts (MEFs) with and without Cre-mediated deletion of the STOP cassette were obtained from David Tuveson (Cold Spring Harbor Laboratory, Cold Spring Harbor N.Y., USA) in 2000. p53^flox/flox MEFs were derived in house (2015) from C57BL/6 mice using standard techniques and immortalized by transient expression of Cre recombinase and deletion of p53. MEFs were cultured and maintained in DMEM with 10% FBS and 1% penicillin-streptomycin. […] Stock solution of palmitic acid (ACROS Organics, cat # AC129702500) was prepared at 100 mM in ethanol. Palmitate (250 μM) was conjugated to 1% (w/v) fatty-acid free bovine serum albumin (Sigma, A8806) in DMEM at 37° C. for 20 min. For all immunofluorescence assays, 8,000 MEFs were seeded into 8-chamber slides (Cellvis, cat # C8-1.5H-N) 12-16 h before treatment. Cells were pre-treated with sphingolipid-like compound 893 (5 μM in water), myriocin (10 μM in methanol), fumonisin-B1 (30 μM in DMSO), or celastrol (500 nM in DMSO) for 3 h followed by a 3 h treatment with BSA-conjugated palmitate mixture or BSA alone.
In assay [2] the test system is C16:0 ceramide generation (CerS6). As to the kind of experiment: C16:0 ceramide levels in palmitate-treated MEFs (UPLC-MS/MS). The class given is cell-based, mouse. Conditions: MEFs; 3 h pre-treatment (893 5 μM, myriocin 10 μM, fumonisin B1 30 μM) then palmitate 250 μM 3 h. The protocol:
Plasma pharmacokinetic analysis of sphingolipid-like compound 893 was performed by Pharmaron Corporation (Beijing, China). C16:0 ceramide levels were quantified in cells using the method described in (T. Kasumov, et al., Anal. Biochem. 401: 154-161, 2010, the disclosure of which is incorporated herein by reference) with minor modifications. Cultured cells were washed twice in PBS and scraped into 250 μL of HPLC grade water and flash frozen until time of analysis. On the day of analysis, samples were thawed, and an aliquot used for protein quantification. For C16:0 ceramide levels in mouse liver, 25 mg of tissue was homogenized in 1 ml of ice-cold PBS using a mechanical probe homogenizer (VWR, Radnor, Pa.), protein levels quantified, and 50 μl of the homogenate diluted with 150 μl HPLC-grade water for C16:0 ceramide analysis. Fifty ng of C17:0 ceramide prepared in ethanol (#22532, Cayman Chemical, Ann Arbor, Mich.) was added into 200 μL of the thawed cell suspension or liver homogenate as an internal standard to control for varying extraction efficiency; 750 μL of an ice-cold 1:2 chloroform/methanol mixture was then added. Samples were sonicated for 30 min and phase separation induced by the addition of 250 μL each of chloroform and HPLC-grade water. Samples were centrifuged at 4° C. for 10 min and the lower lipid phase transferred to a clean tube. The remaining protein and aqueous layers were re-extracted with an additional 500 μL of chloroform. Lipid phases were combined and then dried under vacuum. Dried extract was re-constituted in 100% acetonitrile immediately before analysis. Samples were analyzed by ultra-performance liquid chromatography tandem mass spectrometry (UPLC-MS/MS) using a Waters Micromass Quattro Premier XE equipped with a Waters ACQUITY BEH C4 column (Waters Corp.). Samples were resolved starting at 60% mobile phase A (10 mM ammonium acetate and 0.05% formic acid in water) to 98% mobile phase B (60:40 acetonitrile:isopropanol) over 3 min with a linear gradient, held at 98% B for 1 min, then the column was equilibrated with 60% A for 1 min. The mass spectrometer was operated in positive ion mode with the following parameters: cone voltage 20 V, source temperature 125° C., desolvation temperature 400° C. Ion transition channels for MS/MS were 538→264 for C16:0 ceramide and 552→264 for C17:0 ceramide, both with a dwell time of 285 ms. Standard curves prepared from C16:0 ceramide (#860516, Avanti Polar Lipids, Alabaster, Ala.) dissolved in ethanol were used for quantitation and were linear from 4.1 nM-1,000 nM, with an R^2 of 0.98 or greater.
3T3-L1 cells were maintained in DMEM with 10% FBS and 1% penicillin-streptomycin until induced to differentiate. […]

With `Nc1ccc(C(=O)Nc2cccc(-c3nc(N4CCOCC4)c4oc5ncccc5c4n3)c2)cn1` [YM201636, reference compound], in the assay with DRP1, the “DRP1 recruitment to mitochondria in response to palmitate” value is reported as “prevented DRP1 recruitment”.

Take `CCCC[C@@H](C)[C@@H](OC(=O)C[C@@H](CC(=O)O)C(=O)O)[C@H](C[C@@H](C)C[C@H](O)CCCC[C@@H](O)C[C@H](O)[C@H](C)N)OC(=O)C[C@@H](CC(=O)O)C(=O)O` [fumonisin B1]: the “Reversal of mitochondrial fragmentation / tubularity in A549 cells” value with A549 lung cancer cells is “did not increase mitochondrial tubularity in A549 cells”. Besides, in assay [1], the “Protection from palmitate-induced mitochondrial fragmentation (aspect ratio, branch length, roundness)” value was “prevented palmitate-induced morphological changes”. Moreover, in assay [2], the “Palmitate-induced C16:0 ceramide production” value is on record as “Blocking ceramide production”.

With `CCCCCCC(=O)CCCCCC/C=C/C[C@@H](O)[C@H](O)[C@@](N)(CO)C(=O)O` [myriocin], the “Reversal of mitochondrial fragmentation / tubularity in A549 cells” value in the assay with A549 lung cancer cells was “did not increase mitochondrial tubularity in A549 cells”. Further, in assay [1], the “Protection from palmitate-induced mitochondrial fragmentation (aspect ratio, branch length, roundness)” value is “prevented palmitate-induced morphological changes”. Moreover, the “Palmitate-induced C16:0 ceramide production” value in assay [2] is given as “Blocking ceramide production”.
